In ChEMBL document CHEMBL4229413, “Identification by Inverse Virtual Screening of magnolol-based scaffold as new tankyrase-2 inhibitors” (Bioorg Med Chem, 2018):
Active and inactive are the calls of the source. No cut-off for these calls is given here.

Experiments:
[1] = biological target: T1, Poly [ADP-ribose] polymerase tankyrase-2 (Homo sapiens, UniProt Q9H2K2); test: Binding affinity to recombinant human N-terminal His-tagged TNKS2 (Ser959 to Gly1166 residues) expressed in Escherichia coli by surface plasmon resonance analysis
T1 sequence (Q9H2K2 whole entry): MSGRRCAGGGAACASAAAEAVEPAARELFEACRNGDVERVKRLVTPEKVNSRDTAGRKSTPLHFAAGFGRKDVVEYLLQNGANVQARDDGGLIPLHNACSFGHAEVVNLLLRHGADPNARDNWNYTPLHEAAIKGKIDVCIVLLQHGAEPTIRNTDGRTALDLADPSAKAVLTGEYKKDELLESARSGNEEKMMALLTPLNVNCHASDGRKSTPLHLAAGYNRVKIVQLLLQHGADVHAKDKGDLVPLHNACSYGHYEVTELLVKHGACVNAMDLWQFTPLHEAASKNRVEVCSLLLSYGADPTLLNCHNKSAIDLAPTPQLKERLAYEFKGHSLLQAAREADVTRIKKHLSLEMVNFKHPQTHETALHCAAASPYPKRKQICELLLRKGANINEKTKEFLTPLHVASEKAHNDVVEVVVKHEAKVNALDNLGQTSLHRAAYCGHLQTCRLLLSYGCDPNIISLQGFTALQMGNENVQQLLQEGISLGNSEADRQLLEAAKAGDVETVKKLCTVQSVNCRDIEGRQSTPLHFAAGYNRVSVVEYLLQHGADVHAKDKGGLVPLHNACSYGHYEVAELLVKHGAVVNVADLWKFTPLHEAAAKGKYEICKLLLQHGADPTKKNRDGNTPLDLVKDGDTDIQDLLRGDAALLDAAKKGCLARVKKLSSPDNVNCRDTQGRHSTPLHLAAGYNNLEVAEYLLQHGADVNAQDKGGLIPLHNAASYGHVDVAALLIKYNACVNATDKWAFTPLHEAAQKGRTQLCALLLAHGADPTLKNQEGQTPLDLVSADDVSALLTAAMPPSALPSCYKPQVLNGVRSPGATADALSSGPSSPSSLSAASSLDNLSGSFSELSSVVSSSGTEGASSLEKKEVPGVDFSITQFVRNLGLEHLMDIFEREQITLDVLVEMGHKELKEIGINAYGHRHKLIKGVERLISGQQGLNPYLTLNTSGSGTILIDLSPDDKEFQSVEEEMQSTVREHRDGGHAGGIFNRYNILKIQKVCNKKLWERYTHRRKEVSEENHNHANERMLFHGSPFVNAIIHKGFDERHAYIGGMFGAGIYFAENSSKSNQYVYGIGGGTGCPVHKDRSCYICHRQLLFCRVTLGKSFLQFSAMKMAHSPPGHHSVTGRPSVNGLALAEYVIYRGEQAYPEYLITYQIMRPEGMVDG

[2] = biological target: Casein kinase II alpha/beta (Homo sapiens, UniProt P67870+P68400); test: Binding affinity to recombinant human CK2alpha/beta expressed in Escherichia coli by surface plasmon resonance analysis
[3] = biological target: T2, Poly [ADP-ribose] polymerase tankyrase-1 (Homo sapiens, UniProt O95271); test: Binding affinity to recombinant human N-terminal GSt-tagged TNKS1 (1000 to 1328 residues) expressed in baculovirus infected Sf9 cells by surface plasmon resonance analysis
T2 sequence (O95271 whole entry): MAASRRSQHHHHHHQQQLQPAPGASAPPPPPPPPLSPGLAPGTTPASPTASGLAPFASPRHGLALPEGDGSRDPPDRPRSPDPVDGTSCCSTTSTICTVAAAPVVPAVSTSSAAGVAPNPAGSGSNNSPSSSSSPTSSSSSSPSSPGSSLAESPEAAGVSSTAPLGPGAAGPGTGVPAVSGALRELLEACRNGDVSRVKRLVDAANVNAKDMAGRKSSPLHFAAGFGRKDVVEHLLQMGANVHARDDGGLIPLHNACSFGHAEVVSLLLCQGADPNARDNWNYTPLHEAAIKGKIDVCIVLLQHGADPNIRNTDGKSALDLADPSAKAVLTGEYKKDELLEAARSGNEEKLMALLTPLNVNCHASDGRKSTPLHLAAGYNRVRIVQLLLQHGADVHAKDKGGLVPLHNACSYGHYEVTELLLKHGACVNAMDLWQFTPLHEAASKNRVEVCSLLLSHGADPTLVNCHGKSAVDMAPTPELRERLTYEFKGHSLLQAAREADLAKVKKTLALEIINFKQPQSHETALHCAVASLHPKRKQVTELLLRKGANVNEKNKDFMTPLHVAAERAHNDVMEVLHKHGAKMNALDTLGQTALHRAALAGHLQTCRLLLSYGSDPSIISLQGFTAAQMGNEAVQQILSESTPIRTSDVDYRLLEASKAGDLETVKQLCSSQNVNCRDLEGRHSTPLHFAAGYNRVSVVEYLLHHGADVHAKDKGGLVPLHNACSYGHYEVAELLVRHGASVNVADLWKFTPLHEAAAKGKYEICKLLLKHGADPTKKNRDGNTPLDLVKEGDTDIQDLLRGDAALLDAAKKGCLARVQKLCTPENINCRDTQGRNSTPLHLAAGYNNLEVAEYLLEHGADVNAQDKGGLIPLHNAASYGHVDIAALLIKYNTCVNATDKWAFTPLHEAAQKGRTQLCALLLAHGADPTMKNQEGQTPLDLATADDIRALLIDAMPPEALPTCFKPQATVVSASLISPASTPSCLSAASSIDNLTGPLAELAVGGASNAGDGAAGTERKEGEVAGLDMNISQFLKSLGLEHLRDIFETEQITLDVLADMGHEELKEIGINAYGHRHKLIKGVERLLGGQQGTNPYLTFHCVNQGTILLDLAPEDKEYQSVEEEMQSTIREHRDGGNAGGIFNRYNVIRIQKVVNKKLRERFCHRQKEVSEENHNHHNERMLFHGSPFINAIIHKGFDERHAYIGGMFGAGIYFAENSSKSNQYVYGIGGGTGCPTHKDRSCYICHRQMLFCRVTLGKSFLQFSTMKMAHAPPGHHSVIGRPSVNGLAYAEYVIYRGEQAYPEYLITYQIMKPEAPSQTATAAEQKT

[4] = biological target: Poly [ADP-ribose] polymerase 1 (Homo sapiens, UniProt P09874); test: Binding affinity to recombinant human PARP1 expressed in baculovirus infected Sf9 cells by surface plasmon resonance analysis
A549 [5] = test: Antiproliferative activity against human A549 cells assessed as effect on cell viability at 100 uM after 72 hrs by MTT assay relative to control; type: functional
[6] = biological target: T3, Bromodomain-containing protein 9 (Homo sapiens) (UniProt Q9H8M2); test: Binding affinity to BRD9 (unknown origin) by surface plasmon resonance analysis
T3 sequence (whole entry): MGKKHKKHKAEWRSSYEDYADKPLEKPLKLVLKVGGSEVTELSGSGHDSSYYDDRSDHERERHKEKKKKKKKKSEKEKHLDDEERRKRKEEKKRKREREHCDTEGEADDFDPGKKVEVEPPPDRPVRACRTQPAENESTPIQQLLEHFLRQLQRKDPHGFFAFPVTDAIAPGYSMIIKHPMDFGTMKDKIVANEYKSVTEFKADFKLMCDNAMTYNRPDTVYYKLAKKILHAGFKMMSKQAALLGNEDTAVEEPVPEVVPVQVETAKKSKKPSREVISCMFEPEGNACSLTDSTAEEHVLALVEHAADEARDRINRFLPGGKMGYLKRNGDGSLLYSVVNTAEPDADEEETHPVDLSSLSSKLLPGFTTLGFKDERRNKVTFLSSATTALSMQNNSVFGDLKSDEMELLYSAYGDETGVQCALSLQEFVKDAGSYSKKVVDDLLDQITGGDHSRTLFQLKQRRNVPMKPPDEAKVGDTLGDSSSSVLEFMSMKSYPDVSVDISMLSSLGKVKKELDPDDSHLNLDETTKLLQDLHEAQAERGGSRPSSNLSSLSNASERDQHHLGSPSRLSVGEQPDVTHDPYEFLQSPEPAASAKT

A549 [7] = tested on: A549
Description: (§1) Growth inhibition of human A549 cells after 72 hrs by MTT assay

A549 [8] = test: cells; conditions: Homo sapiens, A549, 72 h
Description: as §1

Chain of Poly [ADP-ribose] polymerase 1 (P09874 whole entry): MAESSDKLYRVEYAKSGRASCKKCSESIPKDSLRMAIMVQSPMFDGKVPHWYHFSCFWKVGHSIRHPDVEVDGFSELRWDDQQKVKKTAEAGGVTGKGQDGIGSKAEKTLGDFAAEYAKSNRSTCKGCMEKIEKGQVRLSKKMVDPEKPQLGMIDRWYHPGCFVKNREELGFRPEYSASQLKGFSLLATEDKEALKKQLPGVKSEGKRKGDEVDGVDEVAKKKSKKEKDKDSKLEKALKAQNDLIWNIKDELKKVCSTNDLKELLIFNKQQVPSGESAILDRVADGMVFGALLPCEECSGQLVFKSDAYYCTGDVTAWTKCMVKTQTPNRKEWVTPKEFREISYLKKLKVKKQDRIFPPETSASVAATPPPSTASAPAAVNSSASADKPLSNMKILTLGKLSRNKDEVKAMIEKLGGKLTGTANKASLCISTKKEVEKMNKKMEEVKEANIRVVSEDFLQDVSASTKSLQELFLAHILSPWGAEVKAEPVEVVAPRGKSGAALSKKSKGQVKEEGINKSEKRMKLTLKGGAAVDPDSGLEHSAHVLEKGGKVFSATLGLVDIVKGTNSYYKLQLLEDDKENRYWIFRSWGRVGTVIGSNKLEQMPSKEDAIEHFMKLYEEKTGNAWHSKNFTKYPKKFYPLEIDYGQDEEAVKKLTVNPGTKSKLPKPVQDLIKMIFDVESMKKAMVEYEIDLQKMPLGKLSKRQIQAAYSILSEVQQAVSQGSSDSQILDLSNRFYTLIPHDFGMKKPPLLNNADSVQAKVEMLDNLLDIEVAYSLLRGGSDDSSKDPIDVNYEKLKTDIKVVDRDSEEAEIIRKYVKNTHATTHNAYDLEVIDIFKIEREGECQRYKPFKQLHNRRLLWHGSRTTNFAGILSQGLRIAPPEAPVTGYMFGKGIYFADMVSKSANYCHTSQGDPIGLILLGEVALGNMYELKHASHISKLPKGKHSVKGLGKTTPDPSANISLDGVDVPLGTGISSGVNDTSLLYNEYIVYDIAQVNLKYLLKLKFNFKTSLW
Chain of Casein kinase II alpha/beta (P67870 whole entry, the tested form may be a part): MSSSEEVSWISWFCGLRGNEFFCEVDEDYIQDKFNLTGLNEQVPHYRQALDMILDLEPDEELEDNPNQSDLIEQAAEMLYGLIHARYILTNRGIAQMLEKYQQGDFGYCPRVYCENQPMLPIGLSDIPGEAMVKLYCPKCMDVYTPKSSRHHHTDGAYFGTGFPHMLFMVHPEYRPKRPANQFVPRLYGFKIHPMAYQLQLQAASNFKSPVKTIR
Chain of Casein kinase II alpha/beta (P68400 whole entry, the tested form may be a part): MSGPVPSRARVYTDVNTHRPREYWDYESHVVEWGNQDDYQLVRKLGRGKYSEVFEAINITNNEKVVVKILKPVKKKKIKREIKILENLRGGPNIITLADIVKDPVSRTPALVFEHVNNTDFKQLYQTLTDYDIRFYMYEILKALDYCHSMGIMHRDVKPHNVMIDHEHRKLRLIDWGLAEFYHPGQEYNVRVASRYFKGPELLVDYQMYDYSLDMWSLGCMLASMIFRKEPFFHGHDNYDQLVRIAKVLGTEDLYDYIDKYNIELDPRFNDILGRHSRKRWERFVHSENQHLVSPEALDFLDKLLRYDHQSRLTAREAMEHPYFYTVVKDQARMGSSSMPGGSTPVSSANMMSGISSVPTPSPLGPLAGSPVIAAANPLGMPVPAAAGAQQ

COc1cc(CCCO)cc(-c2cc(CCCO)cc(OC)c2O)c1O
Kd ([1]; read-out: Kd): 18.5 nM | Kd [2]: Not Active | Kd ([3]; sf9): Not Active | Kd ([4]; sf9): Not Active | Activity (A549 [5]): 20 - 30% | Activity [6]: inactive | IC50 (A549 [7]): Not Active

Oc1nc(-c2ccc(C(F)(F)F)cc2)nc2c1CSCC2
IC50 (A549 [8]): 12.3 µM

C=CCc1ccc(O)c(-c2cc(CC=C)cc(O)c2O)c1
Kd [1]: Not Active | Kd [2]: Not Active | Kd ([3]; read-out: Kd): 5260 nM | Kd ([4]; read-out: Kd): 1250 nM | Activity [6]: inactive

C=CCc1cc(O)c(O)c(-c2cc(CC=C)cc(OC)c2O)c1
Kd ([1]; read-out: Kd): 21 nM | Kd [2]: Not Active | Kd ([3]; read-out: Kd): 520 nM | Kd ([4]; sf9): Not Active | Activity [6]: inactive | IC50 (A549 [8]): 4.7 µM

C=CCc1ccc(O)c(-c2cc(CC=C)ccc2O)c1 [MAGNOLOL]
Kd [1]: Not Active | Kd [2]: Not Active | Kd ([3]; sf9): Not Active | Kd ([4]; sf9): Not Active | Activity [6]: inactive

COc1cc(CCCOC(C)=O)cc(-c2cc(CCCOC(C)=O)cc(OC)c2O)c1O
Kd ([1]; read-out: Kd): 6.5 nM | Kd [2]: Not Active | Kd ([3]; sf9): Not Active | Kd ([4]; sf9): Not Active | Activity (A549 [5]): 20 - 30% | Activity [6]: inactive | IC50 (A549 [7]): Not Active
